# Experimental data published in patent publication US7498341B2, “Heterocyclically substituted 7-amino-4-quinolone-3-carboxylic acid derivatives, process for their preparation and their use as medicaments” (Sanofi Aventis Deutschland GmbH, priority 2004, dated 2009).
# Target: T1, human glycogen phosphorylase a (Homo sapiens, UniProt P06737)
# T1 sequence (P06737 2-847 limits assumed): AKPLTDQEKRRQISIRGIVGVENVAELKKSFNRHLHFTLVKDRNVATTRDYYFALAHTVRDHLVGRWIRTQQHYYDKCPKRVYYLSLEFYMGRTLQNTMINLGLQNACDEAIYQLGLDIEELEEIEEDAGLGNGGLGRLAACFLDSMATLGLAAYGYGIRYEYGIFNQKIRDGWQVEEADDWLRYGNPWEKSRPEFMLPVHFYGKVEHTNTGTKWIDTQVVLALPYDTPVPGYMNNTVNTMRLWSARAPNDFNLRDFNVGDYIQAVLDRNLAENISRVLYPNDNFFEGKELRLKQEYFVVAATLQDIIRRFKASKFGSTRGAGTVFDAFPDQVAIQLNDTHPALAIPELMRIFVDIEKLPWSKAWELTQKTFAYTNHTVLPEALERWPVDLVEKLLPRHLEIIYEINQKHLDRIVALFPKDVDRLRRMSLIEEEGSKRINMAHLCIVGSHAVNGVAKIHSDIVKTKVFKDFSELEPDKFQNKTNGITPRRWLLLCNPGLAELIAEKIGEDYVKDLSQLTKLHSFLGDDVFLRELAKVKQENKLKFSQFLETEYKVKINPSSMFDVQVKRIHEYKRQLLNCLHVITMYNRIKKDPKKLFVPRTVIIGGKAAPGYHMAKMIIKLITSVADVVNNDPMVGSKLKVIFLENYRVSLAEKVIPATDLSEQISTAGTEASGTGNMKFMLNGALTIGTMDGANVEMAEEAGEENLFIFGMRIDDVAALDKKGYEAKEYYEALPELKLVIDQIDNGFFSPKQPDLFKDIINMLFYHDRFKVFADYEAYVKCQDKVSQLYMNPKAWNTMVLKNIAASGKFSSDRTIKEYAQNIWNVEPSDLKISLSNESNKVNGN
# Experiment: Glycogen phosphorylase a activity assay (reverse direction, liberation of inorganic phosphate)
# Format: biochemical
# Settings: 10 μM test substance; in vitro inhibition of glycogen phosphorylase a
# Experimental: Glycogen phosphorylase a Activity Assay
# All the reactions were carried out as duplicate determinations in microtiter plates with 96 wells (Half Area Plates, Costar No 3696), measuring the change in absorption owing to the formation of the reaction product at the wavelength specified hereinafter in a Multiskan Ascent Elisa Reader (Lab Systems, Finland).
# In order to measure the GPa enzymic activity in the reverse direction, the general method of Engers et al. (Engers H D, Shechosky S, Madsen N B, Can J Biochem 1970 July; 48(7):746-754) was used to measure the conversion of glucose 1-phosphate into glycogen and inorganic phosphate, with the following modifications: human glycogen phosphorylase a (for example with 0.76 mg of protein/ml (Aventis Pharma Deutschland GmbH), dissolved in buffer solution E (25 mM β-glycerophosphate, pH 7.0, 1 mM EDTA and 1 mM dithiothreitol) was diluted with buffer T (50 mM Hepes, pH 7.0, 100 mM KCl, 2.5 mM EDTA, 2.5 mM MgCl2.6H2O) and addition of 5 mg/ml glycogen to a concentration of 10 μg of protein/ml. […] The baseline glycogen phosphorylase a activity in the absence of test substance was determined by adding 10 μl of buffer solution T (0.1% DMSO). […] After incubation at 45° C. for 60 minutes, the absorption at 820 nm was measured. […]
row,SMILES,% inhibition at 10 μM
1,"Cc1ccc(C)n1Nc1cc2c(=O)c(C(=O)O)cn(Cc3ccccc3)c2cc1Cl [Example 42, 1-Benzyl-7-chloro-6-(2,5-dimethylpyrrol-1-ylamino)-4-oxo-1,4-dihydroquinolone-3-carboxylic acid]",101%
2,"CCn1cc(C(=O)OCOC(=O)C(C)(C)C)c(=O)c2cc(Nn3c(C)ccc3C)c(Cl)cc21 [Example 53, 2,2-Dimethylpropionyloxymethyl 7-chloro-6-(2,5-dimethylpyrrol-1-ylamino)-1-ethyl-4-oxo-1,4-dihydroquinolone-3-carboxylate]",93%
